In PubChem BioAssay (NCI):
Several values for one entry are separate records, joined by “and”; a condition that tells them apart may be missing. Equal values may be shown once.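 All cell lines were grown in 96-well plates and treated with compound for 48 hours. Abbreviation: GI50, concentration required for 50% inhibition of growth. TGI: total growth inhibition.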

How the values were obtained:
Experiment in all cases: NCI tumour cell line growth inhibition, 48 h
[1] = test system: DLD-1 colon
[2] = test system: XF 498 CNS
[3] = test system: KM20L2 colon
[4] = test system: DMS 114 small cell lung
[5] = test system: DMS 273 small cell lung
[6] = test system: LXFL 529 NSCLC
[7] = test system: MDA-N
[8] = test system: RXF-631 renal
[9] = test system: P388 leukemia
[10] = test system: SN12K1 renal
[11] = test system: P388/ADR leukemia

Row | SMILES | TGI [1] | TGI [2] | TGI [3] | TGI [4] | TGI [5] | TGI [6] | TGI [7] | further results
1 | O=C(Nc1cc(Cl)ccc1Cl)c1cc2cccc(Br)c2oc1=O | > 100 µM | 72.6 µM | > 100 µM | > 100 µM | > 100 µM |  |  | 
2 | O=C1C=CC(=O)C2C1Cc1ccccc1C2c1ccccc1 (stereo unspecified) | > 100 µM |  | > 100 µM | 42.3 µM | > 100 µM | 31.1 µM |  | 
3 | NCCOCn1cc(Cc2cccc(OCc3ccccc3)c2)c(=O)[nH]c1=O | > 100 µM |  | > 100 µM | > 100 µM | > 100 µM | > 100 µM |  | 
4 | COc1cc(O)c(C(=O)CC(C)=O)c(OC)c1 | > 100 µM | > 100 µM | > 100 µM | > 100 µM | > 100 µM | > 100 µM |  | 
5 | O=S(=O)(c1ccccc1)c1nccs1 | > 100 µM | > 100 µM | > 100 µM | > 100 µM | > 100 µM | > 100 µM |  | 
6 | O=C(O)CNc1ccc(Cl)c(Cl)c1 |  |  |  |  |  |  | 73 µM | 
7 | Cc1cc(C)nc(NS(=O)(=O)c2ccc(Nc3c4ccccc4nc4c(C(=O)Nc5ccc(S(=O)(=O)Nc6cc(C)on6)cc5)ccc(Cl)c34)cc2)n1 | 33.3 µM | 36.2 µM | 35.4 µM |  |  | 42.4 µM |  | TGI [8]: 64.6 µM
8 | Nc1ncn(C2OC(COP(=O)(O)O)C(O)C2O)c(=O)n1 (stereo unspecified) |  |  |  |  |  |  | > 100 µM | 
9 | CCOP(=O)(OCC)/C(C#N)=C\c1ccsc1 | > 100 µM | > 100 µM | > 100 µM | > 100 µM | > 100 µM | > 100 µM |  | 
10 | Cc1c(-c2coc(-c3ccccc3)n2)c(=O)n(-c2ccccc2)n1C | > 100 µM | 81.7 µM | > 100 µM | > 100 µM | > 100 µM | > 100 µM |  | 
11 | Cc1c(NC(=O)CCl)c(=O)oc2c(C)c3occc(=O)c3cc12 |  |  |  |  |  |  | 31 µM | 
12 | COc1ccc2c3c(c(C(=O)O)oc13)CCC2 | > 100 µM | > 100 µM |  | > 100 µM | > 100 µM | > 100 µM |  | 
13 | Cc1cn(CCC(N)C(=O)O)c(=O)[nH]c1=O (stereo unspecified) |  |  |  |  |  |  | > 100 µM | 
14 | CC(=O)NNc1nc(C)c(C(/C=C/c2ccc([N+](=O)[O-])cc2)=N/NC(N)=O)s1 |  |  |  |  |  |  | > 100 µM | 
15 | Cc1ccc(NC(=O)C(=O)C(C(=O)c2ccc3ccccc3c2)C2OC(=O)c3ccccc32)c(C)c1 (stereo unspecified) | 26.5 µM | 10.7 µM | 56 µM | 31.7 µM |  | 20.4 µM |  | TGI [8]: 20.6 µM
16 | CC(CN1CC(=O)NC(=O)C1)N1CC(=O)NC(=O)C1 (stereo unspecified) | > 750 µM | > 690 µM | > 750 µM | 409 µM | > 750 µM |  | > 750 µM | TGI [9]: > 750 µM; GI50 [10]: 67.1 µM; TGI [10]: > 750 µM; TGI [11]: > 750 µM
17 | CCCN(CCC)CCc1cc(C(C)=O)n(S(=O)(=O)c2ccc(C)cc2)c1 | > 100 µM |  |  | > 100 µM | > 100 µM | > 100 µM |  | 
18 | CCNc1cc2oc(=O)cc(C(F)(F)F)c2cc1C |  |  |  |  |  |  | > 100 µM | 
19 | CCOc1cc(C(=O)O)c2c(ccc3ccc(OC)c(OC)c32)c1OC |  |  |  |  |  |  | > 100 µM | 
20 | CCO/C(CCn1[nH]c(=O)c(Cl)c(Cl)c1=O)=N\NC(=O)C(=O)NN | > 100 µM | > 100 µM | > 100 µM | > 100 µM | > 100 µM | > 100 µM |  | TGI [8]: > 100 µM
21 | CC(N)Cc1ccc(Cl)cc1 (stereo unspecified) | > 100 µM | > 100 µM | > 100 µM |  | > 100 µM | > 100 µM |  | 
22 | COC1CC(C)C(OC)c2cc(O)cc(c2O)NC(=O)/C(C)=C/C=C\C(C)C(OC(N)=O)/C(C)=C\C(C)C1OC (stereo unspecified) | 10.5 µM and 11.2 µM |  |  | 23.2 µM and 5.28 µM | 0.905 µM and 6.33 µM | 7.64 µM | 13.3 µM and 6.75 µM | GI50 [1]: 4.65 µM and 5.28 µM; GI50 [3]: 210 nM; GI50 [4]: 202 nM; TGI [11]: 18.2 µM
23 | NC(=O)COc1c(Br)cc(Br)cc1Br | > 100 µM | > 100 µM | > 100 µM | > 100 µM | > 100 µM |  |  | TGI [8]: > 100 µM
24 | CN(C)CCNC(=O)c1cccc2nc3ccc4cccnc4c3nc12 | 8.36 µM |  |  | 2.12 µM | 1.4 µM |  |  | TGI [8]: 11.8 µM

Row | SMILES | TGI [1] | TGI [2] | TGI [3] | TGI [4] | TGI [5] | TGI [6] | TGI [7] | further results
25 | Cc1cc(Br)cc(C)c1NC(=O)C(=O)C(C(=O)c1ccncc1)C1OC(=O)c2ccccc21 (stereo unspecified) | > 100 µM | > 100 µM | > 100 µM | > 100 µM | > 100 µM | > 100 µM |  | TGI [8]: > 100 µM
26 | C=C1C2C[C@@H]3OC4CC5O[C@]6(CC5OC4C(C)C3OC(=O)CC3CC[C@@H]4OC5C7OC8C[C@](CCC9CC(=C)[C@H](CCC(C[C@H]1C)O2)O9)(OC7C4O3)O[C@@H]85)C[C@@H]1O[C@@]2(CC(C)[C@@H]3OC(CC(=O)CCO)C(O)C[C@@H]3O2)CC(C)[C@@H]1O6 (stereo partly specified) | 1.24 µM |  | < 0.001 µM |  | < 0.001 µM | 1.19 µM |  | 
27 | C#CCN(N=O)C(=O)NCCCCC(NC(=O)OCc1ccccc1)C(=O)OCc1ccccc1 (stereo unspecified) | 85.2 µM | 74.1 µM | > 100 µM |  | > 100 µM | 41.4 µM |  | 
28 | COC(NC(N)=O)C(=O)O (stereo unspecified) |  |  |  |  |  |  | > 100 µM | 
29 | O=C(O)C(Br)C(Br)C(=O)O (stereo unspecified) |  |  |  |  |  |  | > 100 µM | 
30 | O=C1NC(O)c2ccccc2O1 (stereo unspecified) |  |  |  |  |  |  | > 100 µM | 
31 | COC1=CC(=O)C(Br)=CC1=O | > 100 µM | 31.5 µM | > 100 µM | 35.5 µM |  | 31.2 µM |  | TGI [8]: 99.2 µM
32 | Cn1cnc([N+](=O)[O-])c1Sc1nnnn1C | 29.5 µM | 30 µM |  | 32.2 µM | 36.1 µM | 24.4 µM |  | 
33 | O=C(N/C(=C\c1c(O)ccc2ccccc12)c1nc2ccccc2[nH]1)c1ccccc1 | > 100 µM | > 100 µM | > 100 µM | > 100 µM | > 100 µM | > 100 µM |  | TGI [8]: > 100 µM
34 | CC1(C)OC2CC3COC(=O)C3CC2O1 (stereo unspecified) | > 100 µM |  | > 100 µM | > 100 µM | > 100 µM | > 100 µM |  | TGI [8]: > 100 µM
35 | CCC[CH2][Sn]([CH2]CCC)([CH2]CCC)[O]C(=O)C(OC(C)=O)c1ccccc1 (stereo unspecified) |  |  | 0.217 µM |  |  |  |  | GI50 [3]: 80.1 nM
36 | CCN(CC)CCC(=O)OC1C(C)=CC(C)C(=O)CC(C(C)CC2CCC(O)C(OC)C2)OC(=O)C2CCCCN2C(=O)C(=O)[C@@]2(O)OC(CCC2C)CC(OC)\C(C)=C/C=C/C=C/C(C)CC(C)C(=O)C1OC (stereo partly specified) |  |  |  |  |  |  | 21.7 µM | 
37 | C/C(=N\NC(=O)CC#N)C(CN1CCCCC1)C(c1ccccc1)c1c(O)c2ccccc2oc1=O (stereo unspecified) |  |  |  |  |  |  | > 100 µM | 
38 | COc1cccc2c1C(=O)c1c(O)c3c(c(O)c1C2=O)C[C@@](O)(C(C)=O)C[C@@H]3OC1CC([N+]([O-])(Cc2ccccc2)Cc2ccccc2)C(O)C(C)O1 (stereo partly specified) | 3.22 µM | 2.63 µM | 2.92 µM | 2.64 µM |  | 2.31 µM |  | TGI [8]: 2.93 µM
39 | Nc1ncnc2c1sc(=S)n2-c1ccccc1 | > 100 µM | > 100 µM | > 100 µM | > 100 µM | > 100 µM | > 100 µM |  | 
40 | O=C1NC(=O)C(=Cc2c3ccccc3cc3ccccc23)C(=O)N1 |  | > 100 µM | > 100 µM |  | > 100 µM | > 100 µM |  | TGI [8]: > 100 µM
41 | COc1cc2c(c(O)c1C)C(=O)CC(c1ccccc1)O2 (stereo unspecified) | > 100 µM |  | 82.3 µM | > 100 µM |  | > 100 µM |  | TGI [8]: > 100 µM
42 | S=c1nc(C(c2ccccc2)c2ccccc2)[nH][nH]1 | > 100 µM | > 100 µM | > 100 µM | > 100 µM | > 100 µM |  |  | TGI [8]: > 100 µM
43 | COC1(OC)C2(Cl)C(Cl)=C(Cl)C1(Cl)C1c3ccc(C(C)=O)c4cccc(c34)C12 (stereo unspecified) |  |  | 87.4 µM | > 100 µM | 20.9 µM | > 100 µM | 86.6 µM | 
44 | CSC(=Nc1ccccc1Cl)NC(=O)c1ccc(Br)cc1 | > 100 µM | > 100 µM | > 100 µM | > 100 µM |  | > 100 µM |  | 
45 | O=C1C=C2C=CC3CC2(O1)C1CCCCN31 (stereo unspecified) |  |  |  |  |  |  | > 100 µM | GI50 [7]: 16.8 µM and 18.8 µM and 36 µM
46 | Cc1c(N)nc([C@H](CC(N)=O)NC[C@H](N)C(N)=O)nc1C(=O)N[C@H](C(=O)N[C@H](C)[C@@H](O)CC(=O)N[C@H](C(=O)NC(O[C@@H]1O[C@@H](C)[C@@H](N)[C@@H](O)[C@H]1O)C(O)c1nc(-c2nc(C(=O)NCCCCN)cs2)cs1)[C@@H](C)O)[C@@H](O[C@@H]1O[C@@H](CO)[C@@H](O)[C@H](O)[C@@H]1O[C@H]1O[C@H](CO)[C@@H](O)[C@H](OC(N)=O)[C@@H]1O)c1c[nH]cn1 (stereo partly specified) |  |  |  |  |  |  | > 50 µM | 
47 | COC1=CC(=O)C2C(C1=O)[C@@H]1c3ccccc3OC(C)(C)[C@H]21 (stereo partly specified) | 34 µM | 32.1 µM | 66.3 µM | 40.8 µM | 40.6 µM | 32.8 µM |  | 
